According to patent US9765114B2, “Method for cancer immunotherapy” (International Institute of Cancer Immunology, Inc., priority 2005, dated 2017):
No end group written: not given here.

Tests used:
HLA-A24 = settings: HLA-A24-restricted manner; cited from earlier work
HLA-A24 antigen = settings: compared with the wild type peptide; cited from earlier work
[1] = tested on: HLA-A2402 expressing VA13/A2402 cells pulsed with or without peptide; experiment: Test using human PBMC: IFN-γ ELISA of peptide-stimulated CD8 positive T cells; type: cell-based; settings: Day 21 T cells, FIG. 9
Method: Peripheral blood (50 ml) was taken using heparinized vacuum blood collection tube from HLA-A24 positive healthy subjects. The blood diluted two fold with PBS (−) was overlayered on Ficoll-Paque (Amersham Biosciences), the amount of which was half of the amount of the blood, followed by centrifugation for 20 minutes at 2000 rpm. A cell layer containing the peripheral blood mononuclear cells (PBMC) was collected and 3-4 times the amount of PBS (−) was added thereto, followed by centrifugation for 10 minutes at 1800 rpm. The cell pellet was washed twice with PBS (−) and PMBC was collected.
The PMBC was suspended in medium for culturing lymphocyte (RPMI1640: AIM V=1:1, NEAA, 10% FCS) and cultured in a culture flask for two hours and nonadherent cells were collected. Using CD8^+ T cell isolation kit II (Miltenyi Biotec), CD8 positive T cells were collected among the nonadherent cells. The adherent cells were cultured in the medium for culturing lymphocyte containing GM-CSF (1000 U/ml) and IL-4 (1000 U/ml) for 7 days. The floating cells were collected as an antigen-presenting cell fraction containing dendritic cells (DC). The collected cells were frozen for preservation until they are used for experiments.
The DC fraction prepared as above was pulsed with the peptide of Example 1 (50 μg/ml) by incubating the cells with the peptide in AIM-V medium containing mitomycin (50 μg/ml) for one hour. After washing with the medium three times, the peptide of Example 1 was further added (50 μg/ml) for one hour pulse to prepare antigen-presenting cells. On Day 0, antigen-presenting cells pulsed with the peptide were added to CD8 positive T cells to conduct the first stimulation, and the cell culture was started in medium for culturing lymphocyte containing IL-7 (10 ng/ml) using 24-well plate. On Day 7, T cells were collected and after washing them, peptide stimulation using antigen-presenting cells pulsed with the peptide was conducted in a similar way to the first stimulation. On the next day (Day 8), IL-2 was added so that the concentration was 50 U/ml. On Day 14, T cells were collected and the third stimulation was conducted in a similar way to the first or second stimulation. On the next day (Day 15), IL-2 was added so that the concentration was 50 U/ml. On Day 21, T cells were collected and frozen for preservation.
1×10^5 cells of T cells of Day 21 were added to 2×10^4 cells of HLA-A2402 expressing VA13/A2402 cells pulsed with or without each of the peptides (wild type peptide (WT1235-243), modified peptide (WT1235-243(2M→Y)) or the peptide of Example 1) and 18 hours later, the supernatant was collected to determine the amount of IFN-γ using ELISA.
The results of the peptide specific reactivity of T cells stimulated with the synthetic peptide of Example 1 were shown in FIG. 9. […]

splenocytes = experiment: Immunization of a mouse (2), mouse IFN gamma ELISPOT of splenocytes; type: in vivo, HLA-A2402/K^b transgenic mouse; settings: splenocytes 7 days after immunization; peptides added at 10^-6 M, 18 hours; FIG. 8
Method: The peptide of Example 1 was adjusted to 40 mg/ml in DMSO. Then, the solution (32.5 μl) was mixed with water for injection (540 μl). Further, the resulting solution (550 μl) was mixed with Freund's incomplete adjuvant (700 μl) (Montanide ISA51 (registered trademark)) (SEPPIC, Inc, Paris, France) using a glass syringe to prepare water-in-oil emulsion.
The resulting preparation (200 μl) was injected into an HLA-A2402/K^b transgenic mouse intradermally in the base of the tail for immunization. 7 days after initiation of the experiment, spleen was removed and splenocytes were prepared in a conventional manner (WO 02/47474). Then, tests were conducted using mouse IFN gamma ELISPOT set (Enzyme—Linked Immunospot) (Fujisawa, catalog No. BD-551083). The test was conducted according to the instructions attached to the set.
According to the attached instructions, the plate was washed and the number of spots was detected using KS Elispot Research System (Carl Zeiss). Elispot method is known as an alternative to a test for cytotoxic activity (J. Immunological Methods, 1995, 181, 45-54).

**Q.** For “CMTWNQMNL [WT1235-243, peptide spanning positions 235 to 243 of the cancer antigen protein WT1]”, which “activity to induce CTLs” value (HLA-A24) is on record?
**A.** having an activity to induce CTLs in HLA-A24-restricted manner

**Q.** With CYTWNQMNL [WT1235-243 (2M→Y)] as the substance, how does the “binding affinity for the HLA-A24 antigen” value (HLA-A24 antigen) read?
**A.** higher binding affinity for the HLA-A24 antigen than the wild type peptide

**Q.** With “H-Cys(H-Cys-OH)-Tyr-Thr-Trp-Asn-Gln-Met-Asn-Leu-OH (H-C(Cys)YTWNQMNL-OH; also: Cys1 disulfide-linked to a free Cys-OH (cystine)) [Example 1, derivative of WT1235-243 (2M→Y) modified with cystine]” as the substance, how does the “reactivity (IFN-γ) of T cells stimulated with the peptide to cells pulsed without the peptide” value ([1]; VA13/A2402 cells not pulsed, 18 hours) read?
**A.** did not react

**Q.** And the “reactivity (IFN-γ) of T cells stimulated with the peptide to cells pulsed with the modified peptide (WT1235-243 (2M→Y))” value ([1]; VA13/A2402 cells pulsed with WT1235-243 (2M→Y), 18 hours)?
**A.** reacted

**Q.** And the “reactivity (IFN-γ) of T cells stimulated with the peptide to cells pulsed with the wild type peptide (WT1235-243)” value ([1]; VA13/A2402 cells pulsed with WT1235-243, 18 hours)?
**A.** reacted

**Q.** And the “reactivity (IFN-γ) of T cells stimulated with the peptide to cells pulsed with the peptide of Example 1” value ([1]; VA13/A2402 cells pulsed with the peptide of Example 1, 18 hours)?
**A.** sufficiently reacted

**Q.** And the “HLA-A24 specific cell-mediated immunity, IFN gamma ELISPOT spots” value (splenocytes)?
**A.** could induce HLA-A24 specific cell-mediated immunity which cross reacted with the wild type peptide
